From patent US20220242827A1, “PHENYLMETHYLPYRAZOLONE COMPOUND HAVING A NOVEL CRYSTAL FORM, AND METHOD FOR PRODUCING SAME” (SIA EMTEKO HOLDING, priority 2019, published 2022)
≈ marks a conversion by molar mass, not a printed value.

Experiments:
Type in all cases: physicochemical
[1] = Storage stability in climate chamber at 25° C. and 60% relative humidity for 24 months; conditions: for pH: normalization 4.5-5.5; for Quantification: normalization more than 99.0; for Impurity 1: normalization not more than 0.1%; for Sum of impurities: normalization not more than 0.3%; for stability on storage (content of the basic substance, content of impurities, pH): 60% humidity
Experimental: The improved stability of the resulting polymorphic form was confirmed by experiments in a climate chamber at 25° C. and 60% humidity.
Comparison of Critical Quality Indicators of Known and Novel Polymorphic Forms of FMP After 24 Months of Storage at 25° C. and 60% Relative Humidity

Solubility in water = assay: Solubility in water
Experimental: The solubility of the obtained samples was checked by dissolving in water with vigorous stirring for 30 minutes at 25° C.

[2] = Electrostatic adhesion model experiment in 316L stainless steel tank; conditions: for surface area of the tank covered with the FMP crystals: 316L stainless steel tank, after thorough mixing and release
Experimental: The following model experiment was performed to test the ability of electrostatic adhesion of the new polymorphic form. The FMP sample was placed in a 316L stainless steel tank, similar to the steel used to make working parts of industrial pharmaceutical equipment. After thorough mixing in the tank, the PMF was released from it and the surface area of the tank covered with the FMP crystals was measured. For the known polymorphic form, this figure was 19.5%, for the new form—12.8%, which is about one third less.

[3] = 24 months at 25° C. and 60% relative humidity

SMILES | Description ([1]; 0 months) | pH ([1]; 0 months) | Quantification ([1]; 0 months) | Impurity 1 ([1]; 0 months) | Sum of impurities ([1]; 0 months) | Description [1, 3] | pH [1, 3] | Quantification [1, 3] | Impurity 1 [1, 3] | Sum of impurities [1, 3] | stability on storage (content of the basic substance, content of impurities, pH) ([1]; 24 months, 25° C.) | stability on storage (content of the basic substance, content of impurities, pH) ([1]; 24 months, 25° C., listed as resulting polymorphic form) | rate of impurity formation ([1]; 24 months, 25° C., 60% relative humidity, versus known form) | solubility (comparison among the samples) (Solubility in water; among samples #1 to #6) | solubility at 30 min (Solubility in water; water, 25 °C, thermodynamic from solid, dissolving in water with vigorous stirring for 30 minutes at 25° C.) | surface area of the tank covered with the FMP crystals [2] | electrostatic index (comparison among the samples) ([2]; among samples #1 to #6) | solubility in water (Solubility in water; dissolving in water with vigorous stirring for 30 minutes at 25° C., listed as known forms) | surface area of the tank covered with the FMP crystals ([2]; listed as known polymorphic form)
CC1=NN(c2ccccc2)C(=O)C1 [A new form of FMP, 1-phenyl-3-methyl-5-pyrazolone] | White | 4.8 | 99.8% | 0.03% | 0.09% | White | 4.8 | 99.7% | 0.04% | 0.10% | more stable | did not change its key characteristics | much lower | best | 300 µg/mL (≈ 1720 µM) | 12.8% | best |  | 
CC1=NN(c2ccccc2)C(=O)C1 [Known form of FMP, 1-phenyl-3-methyl-5-pyrazolone, reference compound] | White | 4.7 | 99.8% | 0.02% | 0.07% | White | 4.6 | 99.6% | 0.08% | 0.18% |  |  |  |  |  |  |  | less than 0.2 mg/ml | 19.5%
